Experimental data reported in patent publication EP3985010A1, “SPIROCYCLIC INHIBITORS OF HEPATITIS B VIRUS” (priority 2020, dated 2022).
pEC50: −log10 of the molar value.

The compounds below were run on HBV (assay: Anti-HBV activity in vitro: quantification of extracellular HBV DNA by direct qPCR in HepAD38 cells). Conditions: Hepatitis B virus, doxycycline-free medium, 96 hours at 37°C, 8-point dose-response curve, read-out: HBV inh EC50.
Assay type: cell-based
Source text: HepAD38 cell line (Ladner et al., Antimicrob Agents Chemother, 1997, 41, 1715-20) was used for HBV inhibition assays. HepAD38 is a subclone, derived from hepatoblastoma cell line HepG2 (ATCC® Number: HB-8065™), that expresses HBV genome under the transcriptional control of a tetracycline-responsive promoter in a TET-OFF system: addition of doxycycline, an antibiotic belonging to the class of tetracycline, suppresses HBV replication, while its removal switches on the process allowing HBV viral particles release in the cell supernatant. HepAD38 cell line is maintained in DMEM/F12, supplemented with 10% of fetal bovine serum, 1% of glutamine, 1% of penicillin/streptomycin, 0.4 mg/ml G418 and 0,3 ug/ml tetracycline. For the HBV inhibition assay, doxycycline-free medium is used in order to allow virion production.
HBV inhibition activity in vitro was performed in 96 multiwell plates. During the initial (primary) screening, compounds were first tested in triplicates at concentrations of 0.02 µM, 0.1µM, 0.5µM and 1µM. For selected compounds, an 8-point dose-response curve was obtained using 1:2 serial dilutions (starting from 0.01µM, 0.1µM, 0.4µM or 5 µM, depending on the degree of inhibition observed during the primary screening). From the dose-response curves, half maximal effective concentration (EC50) could be calculated (see also below).
In more detail, compounds - typically dissolved in DMSO stock solutions - were diluted to 2x the final desired concentration in 100 µl of the above medium (without doxycycline) and plated in three replicates in the 96-well plates.
Simultaneously, HepAD38 cells - extensively pre-washed in doxycycline-free medium in order to induce HBV production - were suspended at 2^∗10^4 cells in 100 µl of doxycycline-free medium and added to each well of the plate, to yield a final assay volume of 200 µl DMSO - used for stock solutions and compounds dilutions - which was always present in the assays at a final concentration of 0.5%.
Plates were then incubated 96 hours at 37°C and then subjected to cell viability assays and extracellular HBV quantification, in order to evaluate both the cytotoxic potential and the antiviral activity of compounds. Cytotoxicity was assessed by a commercial fluorescence assay that measures the metabolic activity of cells, directly related to cell viability (Cell Titer Blue, Promega). Anti-HBV activity was evaluated by quantification of extracellular HBV DNA with direct qPCR. In particular, supernatant was collected and centrifuged for cell debris clarification, viral DNA was extracted from virions by addition of lysis buffer (1 mM 1,4-dithiothreitol, 0.2% sodium dodecyl sulphate) and incubated at 95°C for 10 min. Samples were then diluted 1:40 and real time PCR amplification was performed with SYBR green assay (Power SYBR™ Green PCR Master Mix-Thermo Fisher Scientific) and specific HBV primer (HBV-DF:5'-[…]-3' (SEQ ID No. 1), HBV-DR:5'-[…]-3' (SEQ ID No. 2)).
Antiviral activity data for each compound are reported as EC50 value (see Table 1 legend). Excel and Graphpad Prism programs are typically used for data elaboration and EC50 calculation.
In the case of `C[C@@H](NC(=O)C(=O)N1CCC2(CC1)COc1c(cn(C)c1C(=O)Nc1ccc(F)c(Cl)c1)S(=O)(=O)N2)C(F)(F)F` [Example E7, (R)-N-(3-chloro-4-fluorophenyl)-7'-methyl-1-(2-oxo-2-((1,1,1-trifluoropropan-2-yl)amino)acetyl)-2'H,4'H,7'H-spiro[piperidine-4,3'-pyrrolo[3,4-b][1,4,5]oxathiazepine]-6'-carboxamide 1',1'-dioxide], the pEC50 was > 6.30.
In the case of `C[C@@H](NC(=O)C(=O)N1CC[C@]2(COc3c(c(Cl)n(C)c3C(=O)Nc3ccc(F)c(C(F)F)c3)S(=O)(=O)N2)C1)C(F)(F)F` [Example E34, (R)-8'-chloro-N-(3-(difluoromethyl)-4-fluorophenyl)-7'-methyl-1-(2-oxo-2-(((R)-1,1,1-trifluoropropan-2-yl)amino)acetyl)-2'H,4'H,7'H-spiro[pyrrolidine-3,3'-pyrrolo[3,4-b][1,4,5]oxathiazepine]-6'-carboxamide 1',1'-dioxide], the pEC50 was > 6.30.
In the case of `C[C@H](NC(=O)C(=O)N1CC[C@]2(COc3c(cn(C)c3C(=O)Nc3ccc(F)c(C(F)F)c3)S(=O)(=O)N2)C1)C(F)(F)F` [Example E23, (R)-N-(3-(difluoromethyl)-4-fluorophenyl)-7'-methyl-1-(2-oxo-2-(((S)-1,1,1-trifluoropropan-2-yl)amino)acetyl)-2'H,4'H,7'H-spiro[pyrrolidine-3,3'-pyrrolo[3,4-b][1,4,5]oxathiazepine]-6'-carboxamide 1',1'-dioxide], the pEC50 was > 6.30.
With `C[C@H](NC(=O)C(=O)N1CC2(COc3c(cn(C)c3C(=O)Nc3ccc(F)c(Cl)c3)S(=O)(=O)N2)C1)C(F)(F)F` [Example E16, (S)-N-(3-chloro-4-fluorophenyl)-7'-methyl-1-(2-oxo-2-((1,1,1-trifluoropropan-2-yl)amino)acetyl)-2'H,4'H,7'H-spiro[azetidine-3,3'-pyrrolo[3,4-b][1,4,5]oxathiazepine]-6'-carboxamide 1',1'-dioxide] the pEC50 was > 6.30.
`C[C@H](NC(=O)C(=O)N1CCC2(CC1)COc1c(cn(C)c1C(=O)Nc1ccc(F)c(C(F)F)c1)S(=O)(=O)N2)C(F)(F)F` [Example E14, (S)-N-(3-(difluoromethyl)-4-fluorophenyl)-7'-methyl-1-(2-oxo-2-((1,1,1-trifluoropropan-2-yl)amino)acetyl)-2'H,4'H,7'H-spiro[piperidine-4,3'-pyrrolo[3,4-b][1,4,5]oxathiazepine]-6'-carboxamide 1',1'-dioxide] was tested, and the pEC50 was > 6.30.
With `C[C@@H](NC(=O)C(=O)N1CC[C@]2(COc3c(cn(C)c3C(=O)Nc3ccc(F)c(C(F)F)c3)S(=O)(=O)N2)C1)C(F)(F)F` [Example E6, (R)-N-(3-(difluoromethyl)-4-fluorophenyl)-7'-methyl-1-(2-oxo-2-(((R)-1,1,1-trifluoropropan-2-yl)amino)acetyl)-2'H,4'H,7'H-spiro[pyrrolidine-3,3'-pyrrolo[3,4-b][1,4,5]oxathiazepine]-6'-carboxamide 1',1'-dioxide] the pEC50 was > 6.30.
With `Cn1cc2c(c1C(=O)Nc1ccc(F)c(C(F)F)c1)OCC1(CCN(C(=O)C(=O)NC(C)(C)C(F)(F)F)CC1)NS2(=O)=O` [Example E15, N-(3-(difluoromethyl)-4-fluorophenyl)-7'-methyl-1-(2-oxo-2-((1,1,1-trifluoro-2-methylpropan-2-yl)amino)acetyl)-2'H,4'H,7'H-spiro[piperidine-4,3'-pyrrolo[3,4-b][1,4,5]oxathiazepine]-6'-carboxamide 1',1'-dioxide] the pEC50 was > 6.30.
In the case of `C[C@@H](NC(=O)C(=O)N1CC[C@]2(COc3c(cn(C)c3C(=O)Nc3ccc(F)c(Cl)c3)S(=O)(=O)N2)C1)C(F)(F)F` [Example E4, (R)-N-(3-chloro-4-fluorophenyl)-7'-methyl-1-(2-oxo-2-(((R)-1,1,1-trifluoropropan-2-yl)amino)acetyl)-2'H,4'H,7'H-spiro[pyrrolidine-3,3'-pyrrolo[3,4-b][1,4,5]oxathiazepine]-6'-carboxamide 1',1'-dioxide], the pEC50 was > 6.30.
For `Cn1cc2c(c1C(=O)Nc1ccc(F)c(Cl)c1)OC[C@]1(CCN(C(=O)C(=O)NC(C)(C)C(F)(F)F)C1)NS2(=O)=O` [Example E21, (R)-N-(3-chloro-4-fluorophenyl)-7'-methyl-1-(2-oxo-2-((1,1,1-trifluoro-2-methylpropan-2-yl)amino)acetyl)-2'H,4'H,7'H-spiro[pyrrolidine-3,3'-pyrrolo[3,4-b][1,4,5]oxathiazepine]-6'-carboxamide 1',1'-dioxide], the pEC50 was > 6.30.
For `C[C@@H](NC(=O)C(=O)N1CC[C@@]2(COc3c(cn(C)c3C(=O)Nc3ccc(F)c(C(F)F)c3)S(=O)(=O)N2)C1)C(F)(F)F` [Example E11, (S)-N-(3-(difluoromethyl)-4-fluorophenyl)-7'-methyl-1-(2-oxo-2-(((R)-1,1,1-trifluoropropan-2-yl)amino)acetyl)-2'H,4'H,7'H-spiro[pyrrolidine-3,3'-pyrrolo[3,4-b][1,4,5]oxathiazepine]-6'-carboxamide 1',1'-dioxide], the pEC50 was > 6.30.
For `Cn1cc2c(c1C(=O)Nc1ccc(F)c(C(F)F)c1)OC[C@@]1(CCN(C(=O)C(=O)NCC(F)(F)F)C1)NS2(=O)=O` [Example E27, (S)-N-(3-(difluoromethyl)-4-fluorophenyl)-7'-methyl-1-(2-oxo-2-((2,2,2-trifluoroethyl)amino)acetyl)-2'H,4'H,7'H-spiro[pyrrolidine-3,3'-pyrrolo[3,4-b][1,4,5]oxathiazepine]-6'-carboxamide 1',1'-dioxide], the pEC50 was > 6.30.
For `Cn1cc2c(c1C(=O)Nc1ccc(F)c(Cl)c1)OCC1(CN(C(=O)C(=O)N3CC(F)(F)C3)C1)NS2(=O)=O` [Example E17, N-(3-chloro-4-fluorophenyl)-1-(2-(3,3-difluoroazetidin-1-yl)-2-oxoacetyl)-7'-methyl-2'H,4'H,7'H-spiro[azetidine-3,3'-pyrrolo[3,4-b][1,4,5]oxathiazepine]-6'-carboxamide 1',1'-dioxide], the pEC50 was > 6.30.
`Cn1cc2c(c1C(=O)Nc1ccc(F)c(C(F)F)c1)OC[C@]1(CCN(C(=O)C(=O)NC(C)(C)C(F)(F)F)C1)NS2(=O)=O` [Example E24, (R)-N-(3-(difluoromethyl)-4-fluorophenyl)-7'-methyl-1-(2-oxo-2-((1,1,1-trifluoro-2-methylpropan-2-yl)amino)acetyl)-2'H,4'H,7'H-spiro[pyrrolidine-3,3'-pyrrolo[3,4-b][1,4,5]oxathiazepine]-6'-carboxamide 1',1'-dioxide] was tested, and the pEC50 was > 6.30.
With `Cn1cc2c(c1C(=O)Nc1ccc(F)c(Cl)c1)OCC1(CCN(C(=O)C(=O)NCC(F)(F)F)CC1)NS2(=O)=O` [Example E13, N-(3-chloro-4-fluorophenyl)-7'-methyl-1-(2-oxo-2-((2,2,2-trifluoroethyl)amino)acetyl)-2'H,4'H,7'H-spiro[piperidine-4,3'-pyrrolo[3,4-b][1,4,5]oxathiazepine]-6'-carboxamide 1',1'-dioxide] the pEC50 was > 6.30.
With `C[C@@H](NC(=O)C(=O)N1CC[C@@]2(COc3c(cn(C)c3C(=O)Nc3ccc(F)c(Cl)c3)S(=O)(=O)N2)C1)C(F)(F)F` [Example E5, (S)-N-(3-chloro-4-fluorophenyl)-7'-methyl-1-(2-oxo-2-(((R)-1,1,1-trifluoropropan-2-yl)amino)acetyl)-2'H,4'H,7'H-spiro[pyrrolidine-3,3'-pyrrolo[3,4-b][1,4,5]oxathiazepine]-6'-carboxamide 1',1'-dioxide] the pEC50 was > 6.30.
